According to patent US11738072B2, “Tumor vaccine and uses thereof” (WestVac Biopharma Co., Ltd., priority 2017, dated 2023):

Columns and labels:
[1] = test system: CT26 cells; assay: CT26 cell death test by PI-AnnexinV (fluorescence microscope); type: cell-based, mouse; details: CT26, 24 h
Description: (1) Experimental method: same as 1.

[2] = test system: A549 cells; assay: A549 cell death test by flow cytometry; type: cell-based; details: A549, 24 h, compared with blank control group
Experimental: The method was the same as that in 1(1).
The method was the same as that in 1(2), wherein, the concentration of DOTAP cationic lipid was 4 μg/ml, 8 μg/ml, 16 μg/ml and 32 μg/ml respectively, and the concentration of the pMVA-1/DOTAP complex was expressed by that of DOTAP cationic lipid.
The method was the same as that in 1(3).
a. A549 cells treated by different samples in the Step (3) were washed twice with cold PBS, and resuspended with 1× binding buffer for preparing a cell suspension with a density of 1×10^6 cells/ml;
b. 100 μl of A549 cell suspension prepared in Step a was pipetted into the flow test tube;
c. 5 μl of FITC Annexin V and 5 μl of PI were added to the flow test tube in Step b, mixed gently, and incubated at room temperature for 15 min in the dark;
d. 400 μl of 1× binding buffer was added to the flow test tube in Step c and tested by flow cytometry;

[3] = test system: lysosomes of A549 cells; assay: Lysosomal membrane permeability by FITC-Dextran cell localization; type: cell-based; details: 3 h, confocal microscope; dispersed = increased LMP
Experimental: (1) Inoculation of A549 cells in plates: A549 cells in the logarithmic growth phase were prepared into a cell suspension, inoculated into a 6-well plate as per approximately 1×10^5 cells/well. Then, 2 ml of medium was added to each well, and cultured overnight in a 5% CO2 incubator at 37° C.
(2) FITC-Dextran (made by Sigma) with a final concentration of 1 mg/ml was added to the cell medium in Step (1), and incubated at 37° C. for 4 h in the dark.
(3) The cells in Step (2) were washed twice with sterile PBS, 1640 medium was added, thus allowing A549 cells to be treated with the medium (blank control group), pMVA-1 plasmid (control group PMVA), DOTAP cationic lipid (control group DOTAP) and pMVA-1/DOTAP complex (experimental group PMVA-DOTAP) respectively, and incubated at 37° C. for 3 h in the dark.
(4) The cells in Step (3) were washed twice with PBS, stabilized with 4% paraformaldehyde for 10 min, washed twice with PBS, sealed. Fluorecytes were observed under a confocal microscope and the images were saved.

[4] = test system: A549 cells; assay: Mitochondrial membrane potential by TMRM, flow cytometry; type: cell-based; details: A549, 15-24 h
Experimental: (§1) (1) Inoculation of tumor cells in plates: A549 cells and CT26 cells in the logarithmic growth phase were prepared into a cell suspension respectively, inoculated into a 6-well plate as per 1×10^5 cells/well, 2 ml of medium was added to each well, and cultured overnight in a 5% CO2 incubator at 37° C.
(§2) (2) Different samples added to act on tumor cells: the pMVA-1 plasmid, the DOTAP cationic lipid and the pMVA-1/DOTAP complex were added to the tumor cells cultured in Step (1) respectively, and incubated at 37° C. for 15 h, 18 h, 21 h and 24 h.
(§3) (3) Preparation of TMRM dyeing working fluid (made by Life Technologies): the TMRM mother liquor was diluted with PBS at a ratio of 1:100000 to obtain the TMRM dyeing working fluid. […]
(§4) (5) The tumor cells in Step (4) were collected and treated with different samples for different times, and the tumor cells with mitochondrial membrane potential changes were analyzed by flow cytometry.
(§5) As a potentiometric fluorescence probe, tetramethylrhodamine methyl ester (TMRM) entered the cells and was cleaved by cell lactonase to produce tetramethylrhodamine, indicating strong fluorescence after they had entered mitochondria. […] Therefore, the open state of mitochondrial membrane channel pores can be verified by testing the changes of fluorescence intensity in mitochondria of tumor cells.

[5] = test system: CT26 cells; assay: as above; type: cell-based, mouse; details: CT26, 15-24 h
Experimental: as §1, §2, §3, §4, §5

[6] = test system: mouse sarcoma cell line S180; assay: Subcutaneous S180 sarcoma model in mice; type: in vivo, KM mice; details: 2.5 μg pMVA-1 and/or 25 μg DOTAP sc every 3 days x5; 21 days after inoculation
Experimental: KM mice aged 6-8 weeks were raised. The mouse sarcoma cell line S180 cultured to the logarithmic growth phase was prepared into a cell suspension, and mouse subcutaneous tumor was modeled by subcutaneous injection in the right axilla of each mouse. The number of cells injected into each mouse was 1×10^7, and the injection system was 200 μl for each mouse.
On the 5th day after inoculation of S180 sarcoma cells, when the tumor could be palpated, 40 tumor-bearing mice were randomly divided into 4 groups according to Table 12: i.e. negative control group (NS), DOTAP control group, pMVA-1 control group, and treatment group pMVA-1/DOTAP group. Then, the mice were subcutaneously administrated according to Table 12: 2.5 μg of plasmid pMVA-1 for each mouse in the pMVA-1 control group; 25 μg of DOTAP for each mouse in DOTAP control group; 2.5 μg of DNA and 25 μg of DOTAP for each mouse in the treatment group of the pMVA-1/DOTAP complex group; that is, the mass ratio of plasmid DNA to DOTAP was 1:10. After that, they were administrated every three days for a total of 5 times. The mice were killed and the tumor-free rate of the mice was counted 21 days after inoculation of the tumor.

CCCCCCCC/C=C\CCCCCCCC(=O)OCC(C[N+](C)(C)C)OC(=O)CCCCCCC/C=C\CCCCCCCC (stereo not drawn) [DOTAP, 1,2-dioleoyl-3-trimethylammonium-propane]
PI-positive and AnnexinV-positive cells [1]: did not indicate obvious PI uptake and obvious AnnexinV-labeled positive cells
Annexin-V single positive, PI single positive and PI/Annexin-V double positive cells (PI uptake and Annexin-V) [2]: did not increase significantly
distribution of FITC-Dextran in cytoplasm of A549 cells [3]: distributed in dots
mitochondrial membrane potential [4]: did not change significantly
mitochondrial membrane potential [5]: did not change significantly
tumor-free rate of mice [6]: 20%
